# Results: patent publication US11208399B2, “NLRP3 inflammasome inhibitors” (Novartis AG, priority 2019, dated 2021)
# Counter-ions that a name gives are not always drawn. Like-named read-outs stand apart in the source and are kept apart here.
# Experiments:
# [1] = system: NF-kB-dependent TNF-α secretion; assay: TNF-α secretion assay in THP-1 cells (counter screen, HTRF); type: cell-based; settings: Pam3CSK4-stimulated, 3 hours
# How it was run: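 THP-1 cells were treated with compound, then stimulated with 1 μg/mL LPS or 100 ng/mL Pam3CSK4 for 3 h. Secreted TNF-α in supernatant was measured by HTRF, with viability monitored in parallel. IC50 from logistic fit of % inhibition versus concentration with Hill coefficient.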
# NLRP3 inflammasome = assay: IL-1β secretion assay in PMA-differentiated THP-1 cells, nigericin-activated (HTRF); type: cell-based
# Experimental: 10 μL supernatant was removed, and IL-1p levels were monitored using an HTRF assay (CisBio, #621L1PEC) according to manufacturers' instructions. Viability and pyroptosis was monitored with the addition of PrestoBlue cell viability reagent (Life Technologies, #A13261) directly to the cell culture plate.
# IC50 values were calculated from the plot of percentage of inhibition versus the inhibitor concentration by a logistics fit according to: y=A2+(A1−A2)/(1+(x/IC50)^p) where y is the %-inhibition at the inhibitor concentration, x. A1 is the lowest inhibition value, i.e. 0%, and A2 the maximum inhibition value, i.e. 100%. The exponent, p, is the Hill coefficient. The curve fitting was conducted with an internally developed software suite.
# NLRP3-dependent IL-1β secretion was stimulated in PMA-differentiated THP-1 cells by the addition of nigericin, and cytokines were measured in the […] after 3 hours. As discussed above, activation of the NLRP3 inflammasome requires both an NF-kB-dependent priming step and the addition of a NLRP3 activator.
# [2] = Homo sapiens, 15 μM nigericin, 3 hours, read-out: IL-1β IC50
# [3] = read-out: IL-1β IC50, 15 μM nigericin, 3 hours
Structure (SMILES),IC50 ([1]; Homo sapiens) [µM],IC50 (NLRP3 inflammasome; [2]) [nM],IC50 [1] [µM],IC50 (NLRP3 inflammasome; [3]) [nM]
"Cc1cc(C(F)(F)F)cc(O)c1-c1ccc(N[C@H]2CCCN3CCC[C@@H]23)nn1 [Ex 83b, 3-Methyl-2-(6-(((8S,8aS)-octahydroindolizin-8-yl)amino)pyridazin-3-yl)-5-(trifluoromethyl) phenol]",> 100,69.4,,
"Cc1cc(C(F)(F)F)cc(O)c1-c1ccc(NC[C@H]2CCCCN2CCO)nn1 [Ex 84a, (R)-2-(6-(((1-(2-Hydroxyethyl)piperidin-2-yl)methyl)amino)pyridazin-3-yl)-3-methyl-5-(trifluoromethyl)phenol]",> 100,42.5,,
"Cc1cc(C(F)(F)F)cc(O)c1-c1ccc(NC[C@@H]2CCCCN2CCO)nn1 [Ex 84b, (S)-2-(6-(((1-(2-Hydroxyethyl)piperidin-2-yl)methyl)amino)pyridazin-3-yl)-3-methyl-5-(trifluoromethyl)phenol]",> 33,53.3,,
"Cc1cc(C(F)(F)F)cc(O)c1-c1ccc(N[C@@H]2CC[C@@H]3CC[C@H]2N3C)nn1 [Ex 85b, 3-Methyl-2-(6-(((1R,2R,5R)-8-methyl-8-azabicyclo[3.2.1]octan-2-yl)amino)pyridazin-3-yl)-5-(trifluoromethyl)phenol]",,,> 100,1.3
"Cc1cc(C(F)(F)F)cc(O)c1-c1ccc(N[C@@H]2CC[C@@H]3CC[C@H]2N3CCO)nn1 [Ex 86b, 2-(6-(((1R,2R,5R)-8-(2-Hydroxyethyl)-8-azabicyclo[3.2.1]octan-2-yl)amino)pyridazin-3-yl)-3-methyl-5-(trifluoromethyl)phenol]",,,> 100,1.8
"Cc1cc(C(F)(F)F)cc(O)c1-c1ccc(NC[C@](C)(O)CO)nn1 [Ex 88a, (S)-3-((6-(2-Hydroxy-6-methyl-4-(trifluoromethyl)phenyl)pyridazin-3-yl)amino)-2-methylpropane-1,2-diol]",41,62.3,,
"Cc1cc(C(F)(F)F)cc(O)c1-c1ccc(NC[C@@](C)(O)CO)nn1 [Ex 88b, (R)-3-((6-(2-Hydroxy-6-methyl-4-(trifluoromethyl)phenyl)pyridazin-3-yl)amino)-2-methylpropane-1,2-diol]",> 100,60.5,,
"Cc1cc(C(F)(F)F)cc(O)c1-c1ccc(N[C@H]2CC[C@H](O)[C@@H]2O)nn1 [Ex 89a, (1S,2R,3S)-3-((6-(2-Hydroxy-6-methyl-4-(trifluoromethyl)phenyl)pyridazin-3-yl)amino) cyclopentane-1,2-diol]",> 100,59.7,,
"Cc1cc(C(F)(F)F)cc(O)c1-c1ccc(N[C@@H]2CC[C@@H](O)[C@H]2O)nn1 [Ex 89b, (1R,2S,3R)-3-((6-(2-Hydroxy-6-methyl-4-(trifluoromethyl)phenyl)pyridazin-3-yl)amino)cyclopentane-1,2-diol]",> 100,182,,
"Cc1cc(C(F)(F)F)cc(O)c1-c1ccc(NC[C@@H](O)C(C)C)nn1 [Ex 90a, (S)-2-(6-((2-Hydroxy-3-methylbutyl)amino)pyridazin-3-yl)-3-methyl-5-(trifluoromethyl)phenol]",> 33,64.2,,
"Cc1cc(C(F)(F)F)cc(O)c1-c1ccc(NC[C@H](O)C(C)C)nn1 [Ex 90b, (R)-2-(6-((2-Hydroxy-3-methylbutyl)amino)pyridazin-3-yl)-3-methyl-5-(trifluoromethyl) phenol]",> 100,115,,
"Cc1cc(C(F)(F)F)cc(O)c1-c1ccc(NCC2(O)CCCC2)nn1 [Ex 98, 2-(6-(((1-Hydroxycyclopentyl)methyl)amino)pyridazin-3-yl)-3-methyl-5-(trifluoromethyl)phenol]",> 100,115,,
"Cc1cc(-c2c(C)cc(C(F)(F)F)cc2O)nnc1NC1CCC(=O)N(C)C1 (stereo not drawn) [Ex 99, 5-((6-(2-Hydroxy-6-methyl-4-(trifluoromethyl)phenyl)-4-methylpyridazin-3-yl)amino)-1-methylpiperidin-2-one]",> 100,75,,
"Cc1cc(C)c(-c2ccc(NCCc3ccc(S(N)(=O)=O)cc3)nn2)c(O)c1 [Ex 103, 4-(2-((6-(2-Hydroxy-4,6-dimethylphenyl)pyridazin-3-yl)amino)ethyl)benzenesulfonamide]",16,136,,
"Cc1cc(-c2c(C)cc(C(F)(F)F)cc2O)nnc1N[C@@H]1CCC[N+](C)([O-])C1 (stereo partly drawn) [Ex 104, (3R)-3-((6-(2-Hydroxy-6-methyl-4-(trifluoromethyl)phenyl)-4-methylpyridazin-3-yl)amino)-1-methylpiperidine 1-oxide TFA-salt]",> 100,59,,
